# Data as given in US8551984B2, “Aminopyrimidines as SYK inhibitors” (Merck Sharp & Dohme Corp., priority 2009, dated 2013).
# Counter-ions that a name gives are not always drawn.
# Target: recombinant human SYK (GST-hSYK fusion protein) (Homo sapiens, UniProt P43405)
# Test: biochemical
# Details: rhSYK Activity (IC50), recombinant human GST-SYK 5 pM, ATP 25 μM, biotinylated substrate peptide 250 nM, HTRF, 10-dose titration
# Description: Homogeneous Time-Resolved Fluorescence (HTRF) Assay for the Recombinant Human SYK Enzyme:
row,IC50,Compound
1,< 100 nM,"Cc1cc(Nc2nccc(C(F)(F)F)n2)cc(-c2cnc(CC(C)(C)C(=O)O)s2)c1 [Example 78, 2,2-dimethyl-3-[5-(3-methyl-5-{[4-(trifluoromethyl)pyrimidin-2-yl]amino}phenyl)-1,3-thiazol-2-yl]propanoic acid (potassium salt and TFA salt)]"
2,< 100 nM,"CCOC(=O)CCc1ncc(-c2cc(C)cc(Nc3nccc(C(F)(F)F)n3)c2)s1 [Example 79-1, Ethyl 3-[5-(3-methyl-5-{[4-(trifluoromethyl)pyrimidin-2-yl]amino}phenyl)-1,3-thiazol-2-yl]-propanoate]"
3,< 100 nM,Cc1cc(Nc2nccc(C(F)(F)F)n2)cc(-c2cnc(CCC(N)=O)s2)c1 [Example 79-2]
4,< 100 nM,Cc1cc(Nc2nccc(C(F)(F)F)n2)cc(-c2cnc(CCC(=O)N(C)C)s2)c1 [Example 79-4]
5,< 100 nM,Cc1cc(Nc2nccc(C(F)(F)F)n2)cc(-c2cnc(CCC(=O)N3CCOCC3)s2)c1 [Example 79-5]
6,< 100 nM,Cc1cc(Nc2nccc(C(F)(F)F)n2)cc(-c2cnc(CCC(=O)NCCO)s2)c1 [Example 79-6]
7,< 100 nM,Cc1cc(Nc2nccc(C(F)(F)F)n2)cc(-c2cnc(CCc3nnco3)s2)c1 [Example 79-7]
8,< 100 nM,Cc1cc(Nc2nccc(C(F)(F)F)n2)cc(-c2cnc(CCc3nnc(C)o3)s2)c1 [Example 79-8]
9,< 100 nM,Cc1cc(Nc2nccc(C(F)(F)F)n2)cc(-c2cnc(CCc3nnc(C4CC4)o3)s2)c1 [Example 79-9]
10,< 100 nM,Cc1cc(Nc2nccc(C(F)(F)F)n2)cc(-c2cnc(CC(C)(C)C(N)=O)s2)c1 [Example 79-10]
11,< 100 nM,Cc1cc(Nc2nccc(C(F)(F)F)n2)cc(-c2cnc(CC(C)(C)C(=O)N(C)C)s2)c1 [Example 79-11]
12,< 100 nM,"Cc1cc(Nc2nccc(C(F)(F)F)n2)cc(-c2cnc(CCC(C)(C)O)s2)c1 [Example 80, 2-methyl-4-[5-(3-methyl-5-{[4-(trifluoromethyl)pyrimidin-2-yl]amino}phenyl)-1,3-thiazol-2-yl]butan-2-ol]"
13,100 to 1000 nM,"Cc1cc(Nc2nccc(C(F)(F)F)n2)cc(-c2cnc(C(C)(C)C(=O)OC(C)(C)C)s2)c1 [Example 81, tert-Butyl 2-methyl-2-[5-(3-methyl-5-{[4-(trifluoromethyl)pyrimidin-2-yl]amino}phenyl)-1,3-thiazol-2-yl]propanoate]"
14,< 100 nM,"Cc1cc(Nc2nccc(C(F)(F)F)n2)cc(-c2cnc(C(C)(C)c3nnco3)s2)c1 [Example 82, N-(3-methyl-5-{2-[2-(1,3,4-oxadiazol-2-yl)propan-2-yl]-1,3-thiazol-5-yl}phenyl)-4-(trifluoromethyl)pyrimidin-2-amine]"
15,100 to 1000 nM,"Cc1cc(Nc2nccc(C(F)(F)F)n2)cc(-c2cnc(C3(C(=O)OC(C)(C)C)CC3)s2)c1 [Example 83, tert-butyl 1-[5-(3-methyl-5-{[4-(trifluoromethyl)pyrimidin-2-yl]amino}phenyl)-1,3-thiazol-2-yl]cyclopropanecarboxylate]"
16,< 100 nM,"Cc1cc(Nc2nccc(C(F)(F)F)n2)cc(-c2cnc(C3(C(=O)O)CC3)s2)c1 [Example 84, 1-[5-(3-methyl-5-{[4-(trifluoromethyl)pyrimidin-2-yl]amino}phenyl)-1,3-thiazol-2-yl]cyclopropanecarboxylic acid (TFA salt)]"
17,< 100 nM,"Cc1cc(Nc2nccc(C(F)(F)F)n2)cc(-c2cnc(C3(c4nnco4)CC3)s2)c1 [Example 85, N-(3-methyl-5-{2-[1-(1,3,4-oxadiazol-2-yl)cyclopropyl]-1,3-thiazol-5-yl}phenyl)-4-(trifluoromethyl)pyrimidin-2-amine]"
18,< 100 nM,Cc1cc(Nc2nccc(C(F)(F)F)n2)cc(-c2cnc(C(C)(C)C(N)=O)s2)c1 [Example 85A-1]
19,< 100 nM,Cc1cc(Nc2nccc(C(F)(F)F)n2)cc(-c2cnc(C(C)(C)C(=O)N(C)C)s2)c1 [Example 85A-2]
20,< 100 nM,Cc1cc(Nc2nccc(C(F)(F)F)n2)cc(-c2cnc(C(C)(C)C(=O)N3CCOCC3)s2)c1 [Example 85A-3]
21,< 100 nM,Cc1cc(Nc2nccc(C(F)(F)F)n2)cc(-c2cnc(C(C)(C)c3nnc(C)o3)s2)c1 [Example 85A-4]

row,IC50,Compound
1,< 100 nM,Cc1cc(Nc2nccc(C(F)(F)F)n2)cc(-c2cnc(C3(C(=O)N(C)C)CC3)s2)c1 [Example 85B-1]
2,< 100 nM,CNC(=O)C1(c2ncc(-c3cc(C)cc(Nc4nccc(C(F)(F)F)n4)c3)s2)CC1 [Example 85B-2]
3,< 100 nM,Cc1cc(Nc2nccc(C(F)(F)F)n2)cc(-c2cnc(C3(C(N)=O)CC3)s2)c1 [Example 85B-3]
4,< 100 nM,Cc1cc(Nc2nccc(C(F)(F)F)n2)cc(-c2cnc(C3(c4nnc(C)o4)CC3)s2)c1 [Example 85B-4]
5,< 100 nM,"Cc1cc(Nc2nccc(C(F)(F)F)n2)cc(-c2cnc(C(=O)O)s2)c1 [Example 86, 5-(3-methyl-5-{[4-(trifluoromethyl)pyrimidin-2-yl]amino}phenyl)-1,3-thiazole-2-carboxylic acid]"
6,< 100 nM,"Cc1cc(Nc2nccc(C(F)(F)F)n2)cc(-c2cnc(C(=O)NC[C@@H](O)CO)s2)c1 [Example 87, N-[(2R)-2,3-dihydroxypropyl]-5-(3-methyl-5-{[4-(trifluoromethyl)pyrimidin-2-yl]amino}-phenyl)-1,3-thiazole-2-carboxamide]"
7,100 to 1000 nM,Cc1cc(Nc2nccc(C(F)(F)F)n2)cc(-c2cnc(C(=O)NC(C)C)s2)c1 [Example 87A-1]
8,100 to 1000 nM,Cc1cc(Nc2nccc(C(F)(F)F)n2)cc(-c2cnc(C(N)=O)s2)c1 [Example 87A-2]
9,< 100 nM,Cc1cc(Nc2nccc(C(F)(F)F)n2)cc(-c2cnc(C(=O)NCCS(C)(=O)=O)s2)c1 [Example 87A-5]
10,< 100 nM,Cc1cc(Nc2nccc(C(F)(F)F)n2)cc(-c2cnc(C(=O)N(C)CCO)s2)c1 [Example 87A-6]
11,< 100 nM,Cc1cc(Nc2nccc(C(F)(F)F)n2)cc(-c2cnc(C(=O)NCC(C)O)s2)c1 (centres unmarked) [Example 87A-7]
12,< 100 nM,Cc1cc(Nc2nccc(C(F)(F)F)n2)cc(-c2cnc(C(=O)NC(C)CO)s2)c1 (centres unmarked) [Example 87A-8]
13,< 100 nM,Cc1cc(Nc2nccc(C(F)(F)F)n2)cc(-c2cnc(C(=O)NC3(CO)CC3)s2)c1 [Example 87A-9]
14,< 100 nM,CCC(CO)NC(=O)c1ncc(-c2cc(C)cc(Nc3nccc(C(F)(F)F)n3)c2)s1 (centres unmarked) [Example 87A-10]
15,< 100 nM,Cc1cc(Nc2nccc(C(F)(F)F)n2)cc(-c2cnc(C(=O)NCC(C)(C)O)s2)c1 [Example 87A-11]
16,< 100 nM,Cc1cc(Nc2nccc(C(F)(F)F)n2)cc(-c2cnc(C(=O)NC(C)(CO)CO)s2)c1 [Example 87A-12]
17,100 to 1000 nM,Cc1cc(Nc2nccc(C(F)(F)F)n2)cc(-c2cnc(C(=O)NCc3cnn(C)c3)s2)c1 [Example 87A-13]
18,< 100 nM,Cc1cc(Nc2nccc(C(F)(F)F)n2)cc(-c2cnc(C(=O)NCc3cncn3C)s2)c1 [Example 87A-14]
19,< 100 nM,Cc1cc(Nc2nccc(C(F)(F)F)n2)cc(-c2cnc(C(=O)NCCc3c[nH]cn3)s2)c1 [Example 87A-15]
20,1000 to 10000 nM,Cc1cc(Nc2nccc(C(F)(F)F)n2)cc(-c2cnc(C(=O)NC3(CO)CCCC3)s2)c1 [Example 87A-16]

# Same assay, conditions: rhSYK Activity, Table 63
row,IC50,Compound
1,< 100 nM,Cc1cc(Nc2ncc(F)c(C)n2)cc(-c2cnc(C3(NS(N)(=O)=O)COC3)s2)c1 [Example 63-1]
2,< 100 nM,COc1nc(Nc2cc(C)cc(-c3cnc(C4(NS(N)(=O)=O)COC4)s3)c2)ncc1Cl [Example 63-2]
3,< 100 nM,Cc1cc(Nc2nccc(C(F)(F)F)n2)cc(-c2cnc(C3(NS(N)(=O)=O)CCC3)s2)c1 [Example 63-3]
4,< 100 nM,Cc1cc(Nc2nccc(C(F)(F)F)n2)cc(-c2cnc(C(NS(N)(=O)=O)(C3CC3)C3CC3)s2)c1 [Example 63-4]

# Same assay, conditions: rhSYK Activity, Table 64, first part
row,IC50,Compound
1,< 100 nM,Cc1cc(Nc2nccc(C(F)(F)F)n2)cc(-c2cnc(C3(NC(N)=O)COC3)s2)c1 [Example 64-1]
2,< 100 nM,Cc1cc(Nc2nccc(C3CC3)n2)cc(-c2cnc(C3(NC(N)=O)CCC3)s2)c1 [Example 64-2]
3,< 100 nM,Cc1cc(Nc2ncccn2)cc(-c2cnc(C3(NC(N)=O)CCC3)s2)c1 [Example 64-3]
4,< 100 nM,Cc1cc(Nc2ncc(F)c(C3CC3)n2)cc(-c2cnc(C3(NC(N)=O)CCC3)s2)c1 [Example 64-6]
5,< 100 nM,NC(=O)NC1(c2ncc(-c3cc(F)cc(Nc4ncc(F)c(C5CC5)n4)c3)s2)CCC1 [Example 64-7]
6,< 100 nM,COc1nc(Nc2cc(C)cc(-c3cnc(C4(NC(N)=O)CCC4)s3)c2)ncc1Cl [Example 64-8]
7,< 100 nM,Cc1cc(Nc2nccc(C(F)(F)F)n2)cc(-c2cnc(C3(NC(N)=O)CCNC(=O)CC3)s2)c1 (centres unmarked) [Example 64-9]

# Same assay, conditions: rhSYK Activity, Table 64, second part (structure)
row,IC50,Compound
1,< 100 nM,Cc1cc(Nc2nccc(C(F)(F)F)n2)cc(-c2cnc(C(NC(N)=O)(C3CC3)C3CC3)s2)c1 [Example 64-10]

# Same assay, conditions: rhSYK Activity, Table 70
row,IC50,Compound
1,< 100 nM,Cc1cc(Nc2nccc(C(C)(C)C)n2)cc(-c2cnc(C(C)(C)S(N)(=O)=O)s2)c1 [Example 70-1]
2,< 100 nM,Cc1cc(Nc2nccc(C(C)C)n2)cc(-c2cnc(C(C)(C)S(N)(=O)=O)s2)c1 [Example 70-2]

# Same assay, conditions: rhSYK Activity, Table 74B
row,IC50,Compound
1,< 100 nM,Cc1cc(Nc2nccc(C(F)(F)F)n2)cc(-c2cnc(C3(S(C)(=O)=O)CCC3)s2)c1 [Example 74B-2]
2,1000 to 10000 nM,CS(=O)(=O)C1(c2ncc(-c3cc(Nc4nccc(C(F)(F)F)n4)cc([N+](=O)[O-])c3)s2)CCC1 [Example 74B-3]
3,< 100 nM,Cc1cc(Nc2nccc(C(F)(F)F)n2)cc(-c2cnc(C3(S(N)(=O)=O)CCC3)s2)c1 [Example 74B-4]

# Same assay, conditions: rhSYK Activity, table after Example 68
row,IC50,Compound
1,100 to 1000 nM,Cc1cc(Nc2ncc(C(=O)O)cn2)cc(-c2cnc(C3(O)CCC3)s2)c1 [Example 68-1]
2,< 100 nM,OC1(c2ncc(-c3cccc(Nc4nccc(C(F)(F)F)n4)c3)s2)CCC1 [Example 68-2]

# Same assay, conditions: rhSYK Activity, table after Example 75
row,IC50,Compound
1,< 100 nM,NS(=O)(=O)Cc1ncc(-c2cccc(Nc3nccc(C(F)(F)F)n3)c2)s1 [Example 75-1]
2,< 100 nM,COc1ccnc(Nc2cc(C)cc(-c3cnc(CS(N)(=O)=O)s3)c2)n1 [Example 75-2]
